US20250144067A1, “PERSONALIZED STARVATION THERAPY FOR CANCER” (Faeth Therapeutics, Inc., priority 2021, published 2025)
Structures can show the parent of a compound that is named as a salt. Where two headings read alike, the source gives them in different places.

What was measured:
[1] = tested on: NCI-H292 lung cancer cells; test: FDA drug screening, complete media vs cholesterol-free media without statin (TABLE 1); type: cell-based, human
[2] = tested on: NCI-H292 lung cancer cells; test: FDA drug screening, complete media vs cholesterol-free media with simvastatin (TABLE 2); type: cell-based, human
[3] = Complete minus Cholesterol-free, greater than 0 enhanced anti-cancer activity, about 0 neutral, below 0 antagonists
[4] = NCI-H292 cells in complete media
[5] = NCI-H292 cells, FDA library drug in complete media
[6] = complete media vs cholesterol-free media + simvastatin (0.04 μM), >0 enhanced anti-cancer activity, about 0 neutral, <0 antagonist
[7] = Complete minus Cholesterol-free, >0 enhanced anti-cancer activity, about 0 neutral, <0 antagonist
[8] = NCI-H292 cells, cholesterol-free media without statin, FDA drug library screen
[9] = NCI-H292 cells, complete media, FDA drug library screen
[10] = NCI-H292 cells, cholesterol-free media with simvastatin 0.04 μM, cell growth value in FDA drug screen
[11] = NCI-H292 cells, complete media, cell growth value in FDA drug screen
[12] = complete media minus cholesterol-free media + simvastatin, >0 enhanced anti-cancer activity, about 0 neutral, <0 antagonist
[13] = NCI-H292 cells, cholesterol-free media without statin
[14] = NCI-H292 cells, FDA library drug in cholesterol-free media with simvastatin 0.04 μM
[15] = Complete minus Cholesterol-free, greater than 0 enhanced anti-cancer activity, about 0 neutral, below 0 antagonist
[16] = NCI-H292 cells, FDA drug library screen, cholesterol-free media without statin
[17] = NCI-H292 cells, FDA drug library screen, complete media
[18] = Complete minus Cholesterol-free, […]
[19] = NCI-H292 cells, cholesterol-free media with simvastatin 0.04 μM, FDA drug library screen (TABLE 2)
[20] = NCI-H292 cells, complete media, FDA drug library screen (TABLE 2)
[21] = complete vs cholesterol-free media, greater than 0 enhanced anti-cancer activity, about 0 neutral, below 0 antagonists
[22] = NCI-H292 cells, FDA drug library screen, cholesterol-free media with simvastatin 0.04 μM
[23] = complete media minus cholesterol-free media + simvastatin (0.04 μM), >0 enhanced anti-cancer activity, about 0 neutral, <0 antagonist
[24] = complete vs cholesterol-free media, >0 enhanced anti-cancer activity, about 0 neutral, <0 antagonist
[25] = NCI-H292 cells, drug in cholesterol-free media with simvastatin 0.04 μM
[26] = NCI-H292 cells, drug in complete media
[27] = NCI-H292 cells in cholesterol-free media without statin

OC[C@H]1O[C@@H](O[C@H]2[C@H](O)[C@@H](O)[C@@H](O)O[C@@H]2CO)[C@H](O)[C@@H](O)[C@H]1O [Lactose]
Difference [1, 3]: −0.48
Complete [1, 4]: 0.6552
Complete Media [2, 5]: 0.9497
Difference [2, 6]: −0.28

O=C(C[S+]([O-])Cc1ccco1)NC/C=C\COc1cc(CN2CCCCC2)ccn1 (stereo not shown) [Lafutidine]
Difference [1, 7]: 0.01
Cholesterol-free [1, 8]: 1.364
Complete [1, 9]: 1.371
Cholesterol-free media + simvastatin (0.04 μM) [2, 10]: 1.203
Complete Media [2, 11]: 1.221
Difference [2, 12]: 0.02

Nc1ccn([C@@H]2CS[C@H](CO)O2)c(=O)n1 [Lamivudine]
Difference [1, 7]: −0.22
Cholesterol-free [1, 13]: 1.216
Complete ([1]; NCI-H292 cells, complete media): 0.9947
Cholesterol-free media + simvastatin (0.04 μM) [2, 14]: 1.644
Difference [2, 6]: −0.47

Nc1nnc(-c2cccc(Cl)c2Cl)c(N)n1 [Lamotrigine]
Difference [1, 15]: −0.08
Cholesterol-free [1, 16]: 1.043
Complete [1, 17]: 0.9644
Cholesterol-free media + simvastatin (0.04 μM) [2, 14]: 1.437
Complete Media [2, 5]: 1.093
Difference [2, 6]: −0.34

CC(=O)O[C@H]1C[C@H](O[C@H]2[C@@H](O)C[C@H](O[C@H]3[C@@H](O)C[C@H](O[C@H]4CC[C@@]5(C)[C@H](CC[C@@H]6[C@@H]5C[C@@H](O)[C@]5(C)[C@@H](C7=CC(=O)OC7)CC[C@]65O)C4)O[C@@H]3C)O[C@@H]2C)O[C@H](C)[C@H]1O[C@@H]1O[C@H](CO)[C@@H](O)[C@H](O)[C@H]1O [Lanatoside C]
Difference [1, 18]: −0.02
Cholesterol-free [1, 8]: 7.102E−18
Complete [1, 9]: −0.02112
Cholesterol-free media + simvastatin (0.04 μM) [2, 19]: −0.002744
Complete Media [2, 20]: −0.008403
Difference ([2]; complete media minus cholesterol-free media + simvastatin (0.04 μM), […]): −0.01

CC1(C)OC[C@@H](COC(=O)CCc2ccc(OC[C@@H](O)CNCCNC(=O)N3CCOCC3)cc2)O1 [Landiolol (hydrochloride)]
Cholesterol-free [1, 13]: 1.352
Complete ([1]; NCI-H292 cells, complete media): 0.8842
Difference [1, 21]: −0.47
Cholesterol-free media + simvastatin (0.04 μM) [2, 22]: 1.311
Difference [2, 6]: −0.14

Cc1c(OCC(F)(F)F)ccnc1C[S+]([O-])c1nc2ccccc2[nH]1 (stereo not shown) [Lansoprazole]
Cholesterol-free [1, 13]: 1.34
Complete ([1]; NCI-H292 cells, complete media): 0.9564
Difference [1, 21]: −0.38
Cholesterol-free media + simvastatin (0.04 μM) [2, 14]: 1.103
Complete Media [2, 5]: 0.6471
Difference [2, 6]: −0.46

CS(=O)(=O)CCNCc1ccc(-c2ccc3ncnc(Nc4ccc(OCc5cccc(F)c5)c(Cl)c4)c3c2)o1 [Lapatinib]
Difference [1, 7]: −0.07
Cholesterol-free [1, 8]: 0.3435
Complete [1, 9]: 0.2753
Cholesterol-free media + simvastatin (0.04 μM) [2, 10]: 0.4073
Complete Media [2, 11]: 0.4535
Difference [2, 12]: 0.05

Br.CCN1C[C@]2(OC(=O)c3ccccc3NC(C)=O)CC[C@H](OC)[C@@]34[C@@H]2C[C@@H]([C@@H]13)[C@@]1(O)C[C@H](OC)[C@H]2C[C@@H]4[C@]1(O)[C@H]2OC [Lappaconitine (hydrobromide)]
Difference [1, 18]: −0.05
Cholesterol-free [1, 8]: 1.017
Complete [1, 9]: 0.9704
Cholesterol-free media + simvastatin (0.04 μM) [2, 22]: 1.123
Complete Media [2, 17]: 1.322
Difference ([2]; complete media minus cholesterol-free media + simvastatin, […]): 0.20

CCN(C(=O)c1c(O)c2c(Cl)cccc2n(C)c1=O)c1ccccc1 [Laquinimod]
Difference [1, 15]: −0.15
Cholesterol-free [1, 16]: 1.127
Complete [1, 17]: 0.9797
Cholesterol-free media + simvastatin (0.04 μM) [2, 19]: 1.3
Complete Media [2, 20]: 1.306
Difference [2, 23]: 0.01

CS(=O)(=O)c1cc(F)cc2c3c(n(Cc4ccc(Cl)cc4)c12)[C@@H](CC(=O)O)CC3 [Laropiprant]
Cholesterol-free [1]: 1.338
Complete [1]: 1.092
Difference [1]: −0.25
Cholesterol-free media + simvastatin (0.04 μM) [2]: 0.8957
Complete Media [2]: 1.455
Difference [2]: 0.56

O=C(Nc1cnn2ccc(N3CCC[C@@H]3c3cc(F)ccc3F)nc12)N1CC[C@H](O)C1 [Larotrectinib sulfate]
Cholesterol-free [1, 8]: 1.525
Complete [1, 9]: 1.739
Difference [1, 24]: 0.21
Cholesterol-free media + simvastatin (0.04 μM) [2, 25]: 1.922
Complete Media [2, 26]: 1.699
Difference [2, 6]: −0.22

O=C(Nc1cnn2ccc(N3CCC[C@@H]3c3cc(F)ccc3F)nc12)N1CC[C@H](O)C1 [Larotrectinib]
Difference [1, 15]: −0.08
Cholesterol-free [1, 16]: 1.012
Complete [1, 17]: 0.9305
Cholesterol-free media + simvastatin (0.04 μM) [2, 10]: 1.092
Complete Media [2, 11]: 1.143
Difference [2, 12]: 0.05

CC(C)OC(=O)CCC/C=C\C[C@@H]1[C@@H](CC[C@@H](O)CCc2ccccc2)[C@H](O)C[C@@H]1O [Latanoprost]
Difference [1, 3]: −0.48
Cholesterol-free [1, 27]: 1.483
Complete [1, 4]: 1.005
Cholesterol-free media + simvastatin (0.04 μM) [2, 19]: 1.031
Complete Media [2, 20]: 0.9769
Difference [2, 23]: −0.05

O=C(CCC/C=C\C[C@@H]1[C@@H](CC[C@@H](O)CCc2ccccc2)[C@H](O)C[C@@H]1O)OCCCCO[N+](=O)[O-] [Latanoprostene bunod]
Cholesterol-free [1, 8]: 0.8229
Complete [1, 9]: 1.464
Difference [1, 24]: 0.64
Cholesterol-free media + simvastatin (0.04 μM) [2, 22]: 1.139
Complete Media [2, 17]: 1.004
Difference [2, 6]: −0.14

Cc1ccc2c(c1)c1c(n2CCc2ccc(C)nc2)CCN(C)C1 [Latrepirdine (dihydrochloride)]
Difference [1, 3]: −0.58
Cholesterol-free [1, 27]: 1.66
Complete [1, 4]: 1.083
Cholesterol-free media + simvastatin (0.04 μM) [2, 10]: 1.036
Complete Media [2, 11]: 1.07
Difference [2, 12]: 0.03

CCCCCCCCCCCCN1CCCCCC1=O [Laurocapram]
Difference [1, 7]: −0.06
Complete [1, 9]: 0.887
Cholesterol-free media + simvastatin (0.04 μM) [2, 22]: 1.036
Complete Media [2, 17]: 0.883
Difference [2, 6]: −0.15

COC(=O)N[C@H](C(=O)N1CC2(CC2)C[C@H]1c1nc(-c2ccc3c(c2)C(F)(F)c2cc(-c4ccc5[nH]c([C@@H]6[C@H]7CC[C@H](C7)N6C(=O)[C@@H](NC(=O)OC)C(C)C)nc5c4)ccc2-3)c[nH]1)C(C)C [Ledipasvir (acetone)]
Difference [1, 15]: −0.13
Cholesterol-free [1, 16]: 0.5672
Complete [1, 17]: 0.4332
Cholesterol-free media + simvastatin (0.04 μM) [2, 14]: 1.383
Complete Media [2, 5]: 0.9707
Difference [2, 6]: −0.41

COC(=O)N[C@H](C(=O)N1CC2(CC2)C[C@H]1c1nc(-c2ccc3c(c2)C(F)(F)c2cc(-c4ccc5[nH]c([C@@H]6[C@H]7CC[C@H](C7)N6C(=O)[C@@H](NC(=O)OC)C(C)C)nc5c4)ccc2-3)c[nH]1)C(C)C [Ledipasvir]
Difference [1, 15]: −0.17
Cholesterol-free [1, 16]: 0.5821
Complete [1, 17]: 0.4142
Cholesterol-free media + simvastatin (0.04 μM) [2, 14]: 1.189
Complete Media [2, 5]: 0.6926
Difference [2, 6]: −0.50

Cc1oncc1C(=O)Nc1ccc(C(F)(F)F)cc1 [Leflunomide]
Difference [1, 15]: −0.16
Cholesterol-free [1, 16]: 0.8738
Complete [1, 17]: 0.714
Cholesterol-free media + simvastatin (0.04 μM) [2, 19]: 0.9978
Complete Media [2, 20]: 0.949
Difference [2, 23]: −0.05

Cc1ncc(OC[C@@]2(c3cccc(F)c3)C[C@H]2C(=O)Nc2ccc(F)cn2)c(C)n1 [Lemborexant]
Cholesterol-free [1, 13]: 1.55
Complete ([1]; NCI-H292 cells, complete media): 1.207
Difference ([1]; complete vs cholesterol-free media, […]): −0.34
Cholesterol-free media + simvastatin (0.04 μM) [2, 22]: 1.185
Complete Media [2, 17]: 1.038
Difference ([2]; complete media vs cholesterol-free media + simvastatin (0.04 μM), […]): −0.15

Nc1cccc2c1CN(C1CCC(=O)NC1=O)C2=O (stereo not shown) [Lenalidomide (hemihydrate)]
Difference [1, 7]: −0.19
Cholesterol-free [1, 13]: 1.181
Complete ([1]; NCI-H292 cells, complete media): 0.9861
Cholesterol-free media + simvastatin (0.04 μM) [2, 14]: 1.432
Complete Media [2, 5]: 1.135
Difference [2, 6]: −0.30

Nc1cccc2c1CN(C1CCC(=O)NC1=O)C2=O (stereo not shown) [Lenalidomide]
Difference [1, 15]: −0.16
Cholesterol-free [1, 16]: 1.032
Complete [1, 17]: 0.8739
Cholesterol-free media + simvastatin (0.04 μM) [2, 19]: 1.008
Complete Media [2, 20]: 0.9958
Difference [2, 23]: −0.01

Cc1oc(=O)oc1COC(=O)[C@@H]1N2C(=O)[C@@H](NC(=O)[C@H](N)c3ccccc3)[C@H]2SC1(C)C [Lenampicillin (hydrochloride)]
Difference [1, 15]: −0.08
Cholesterol-free [1, 16]: 1.101
Complete [1, 17]: 1.02
Cholesterol-free media + simvastatin (0.04 μM) [2, 22]: 1.05
Complete Media [2, 17]: 0.9118
Difference [2, 6]: −0.14

COc1cc2nccc(Oc3ccc(NC(=O)NC4CC4)c(Cl)c3)c2cc1C(N)=O [Lenvatinib]
Difference [1, 15]: −0.11
Cholesterol-free [1, 16]: 1.182
Complete [1, 17]: 1.077
Cholesterol-free media + simvastatin (0.04 μM) [2, 25]: 1.178
Complete Media [2, 26]: 1.01
Difference [2, 6]: −0.17

COC(=O)C1=C(C)NC(C)=C(C(=O)OC(C)(C)CN(C)CCC(c2ccccc2)c2ccccc2)C1c1cccc([N+](=O)[O-])c1 (stereo not shown) [Lercanidipine (hydrochloride)]
Difference [1, 15]: −0.18
Cholesterol-free [1, 16]: 0.8895
Complete [1, 17]: 0.7061
Cholesterol-free media + simvastatin (0.04 μM) [2, 10]: 0.8086
Complete Media [2, 11]: 0.8565
Difference [2, 12]: 0.05
